# Columns and labels:
# PC-3 xenograft = assay: Mouse xenograft model PC-3; format: in vivo; details: Prostate, p53/PTEN; oral twice daily dosing
# Method: (§1) The efficacy of the compound of the formula 1 was confirmed in mouse tumor xenograft models, employing the NMRI(nu/nu) strain of mice. For example, cells from the human tumor cell lines MDA-MB-231, U373, and HT29 were pre-incubated subcutaneously in several nude mice to select for the most robustly growing cell population. After having grown to a sufficient size after 2-3 weeks, a piece of about 2 mm^3 volume of the most suitable tumor was transplanted subcutaneously into the region of the thoracic mammary fat pads, an area ensuring a high degree of vascularization of the grafted tissue. […] During the course of the treatment, the weight of the animals and the size of the transplanted tumor was monitored three times a week. […] These doses are best determined separately for each individual mouse strain employed.
# (§2) To establish a solid tumour 3×10^6 tumor cells suspended in 100 μl of serum free medium (RPMI) were inoculated subcutaneously into the region of the thoracic mammary fat pads of 5 Male NMRI(nu/nu) mice of 8-10 weeks of age. […] During the course of the treatment body weight changes and tumor growth were recorded three times a week. Growth curves were plotted together with standard deviations and the significance of differences was determined using an unpaired t-test in FIG. 11. […]
# [1] = biological target: T1, ABC-G2 (breast cancer resistance protein BCRP) (Homo sapiens, UniProt Q9UNQ0); assay: Competition with efflux of mitoxandrone in MCF-7 cells (FACS); format: cell-based
# T1 construct: endogenous in cells; host or cells: MCF-7 cells
# T1 sequence (Q9UNQ0 whole entry): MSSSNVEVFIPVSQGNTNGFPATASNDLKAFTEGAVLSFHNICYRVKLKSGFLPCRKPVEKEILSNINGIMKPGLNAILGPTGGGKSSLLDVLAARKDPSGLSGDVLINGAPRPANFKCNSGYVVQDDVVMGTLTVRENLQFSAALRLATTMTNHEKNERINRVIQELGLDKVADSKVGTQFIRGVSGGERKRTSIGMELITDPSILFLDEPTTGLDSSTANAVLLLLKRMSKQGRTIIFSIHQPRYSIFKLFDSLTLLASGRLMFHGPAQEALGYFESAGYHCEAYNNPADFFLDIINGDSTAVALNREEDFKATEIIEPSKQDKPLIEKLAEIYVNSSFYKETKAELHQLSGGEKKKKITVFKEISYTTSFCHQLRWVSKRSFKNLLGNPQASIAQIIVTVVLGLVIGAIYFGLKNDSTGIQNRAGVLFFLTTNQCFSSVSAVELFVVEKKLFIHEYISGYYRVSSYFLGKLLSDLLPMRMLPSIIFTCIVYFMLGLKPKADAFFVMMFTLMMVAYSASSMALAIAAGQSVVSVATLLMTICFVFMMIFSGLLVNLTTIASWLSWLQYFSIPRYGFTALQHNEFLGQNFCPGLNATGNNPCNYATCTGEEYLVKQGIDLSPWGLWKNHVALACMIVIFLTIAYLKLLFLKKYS
# Excerpt: FIG. 6 compares the recognition of compound 1 and of the compound 6 by two frequently involved multi-drug resistance proteins ABC-B1 (glycoprotein gp170) (A), and ABC-G2 (breast cancer resistance protein BCRP) (B). Measurements were based on competition with the MDR-driven efflux of calcein-AM in Kb-V1 cells expressing high levels of gp170, or competition with the efflux of mitoxandrone in MCF-7 cells by the respective compounds within their effective concentration range. Uptake of fluorescent reporter compounds by competition with 1 or 6 was assessed by FACS as described in Mueller et al., Cancer Chemother. Pharmacol. 59, 157-164 (2007).
# U251 xenograft = assay: Mouse xenograft model U251; format: in vivo; details: Brain, CDKN2A/p53/PTEN; oral twice daily dosing
# Method: as §1, §2
# [2] = test system: MDA-MB-231 breast cancer cell line; assay: Long-term growth inhibition, crystal violet staining; format: cell-based, human
# Method: The human estrogen receptor and EGF receptor negative MDA-MB-231 (HTB 26) breast cancer cell line (obtained from ATCC, Rockville, USA) were cultured in McCoy's 5A medium containing L-glutamine, 2.2 g/l NaHCO3 and 5% fetal calf serum. Cells were maintained in a water saturated atmosphere (95% air/5% carbon dioxide) at 37° C. in 75-cm^2 culture flasks, and were serially passaged following trypsinization using 0.05% trypsin/0.02% EDTA.
# (§3) For proliferation assays tumor cell suspensions (100 μl/well) were seeded into 96-well flat bottomed microtitration plates at a density of ca. 15 cells/microscopic field (magnification 320×). After 2-3 days the culture medium was removed by suction and replaced by fresh medium (200 μl/well) containing varying concentrations of the compound of the formula 1 or vehicle (0.5% DMSO). Compound 1 was added as […] concentrated feed solutions. On every plate 16 wells served as controls and 16 wells were used per concentration of 1. After various times of incubation the cells were fixed with glutardialdehyde and stored in a refrigerator. At the end of the assay all plates were processed simultaneously (staining with 0.02% aqueous crystal violet solution (100 μl/well). Excess dye was removed by rinsing the trays with water for 20 min. The stain bound by the cells was redissolved in 70% ethanol (180 μl/well) while shaking the microplates for about 3 hours. Absorbance (proportional to cell mass) was measured at 578 nm using a BIOTEK 309 Autoreader. The results (mean values±standard deviation) were plotted as growth curves.
# [3] = test system: U373 glioblastoma cell line; assay: as above; format: cell-based, human; details: 10 nM, over a week
# Method: as §3
# The EGF-receptor independent U373 Human Glioblastoma cell line (obtained from ATCC, Rockville, USA) was cultured as above. Treatment with the compound of the formula 1 and analysis of growth inhibition was performed analogous to Example 3.
structure (smiles),measurement,setting,value
CNC(=O)[C@@]1(N)C[C@H]2O[C@]1(C)n1c3ccccc3c3c4c(c5c6ccccc6n2c5c31)C(=O)NC4 [Compound 1],Mean % Inhibition,PC-3 xenograft,68%
same,N tumors with no/neg. growth,PC-3 xenograft,2 of 11
same,"separation of anti-proliferative potency range from uptake concentration for efflux transporter, versus compound 6",[1],more clearly separated
same,Mean % Inhibition,U251 xenograft,74%
same,N tumors with no/neg. growth,U251 xenograft,3 of 11
same,growth of MDA-MB-231 cells,"[2]; 10 nM, 1 week of exposure",almost completely prevents the growth
same,prolonged effect on growth after a single short exposure,"[2]; MDA-MB-231, single exposure 1 to 6 hrs, 100 nM",sustained inhibition over at least one week
same,anti-tumor activity compared with cis-platin,[2]; MDA-MB-231 growth,substantially more potent and efficacious
same,anti-tumor activity compared with vinblastine,[2]; MDA-MB-231 growth,matches the activity of vinblastine
same,growth arrest of U373 cells,[3],almost completely effective

# Source: patent publication US8022056B2, “Compositions and methods for the treatment of cancer” (Tautatis, Inc, priority 2006, dated 2011)
